Measured values taken from the supplement of paper PMC11061612.

Columns and labels:
[1] = tested on: SK-GT-2 (Gastric Carcinoma); assay: combination Emax (second highest fraction inhibited in the dose matrix, 72 h); higher = more inhibition; extreme values may be limits of the assay
In short: (§1)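 Cell lines grown in DMEM/F12 or RPMI with 10% FBS were plated in 1536-well plates and held 24 hours at 37°C, 5% CO2 before 72 hours of exposure to two-drug dose matrices, with DMSO typically at 0.2%. CellTiter-Glo 2.0 luminescence gave viability, which was converted to inhibition. Vehicle wells were set to 0 and blank wells to 1. Combination Emax is the second-highest inhibition in the matrix, and Bliss excess is the observed combination effect minus the expected EA + EB − EA·EB, where EA and EB are the single-agent effects.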

[2] = tested on: HCC1187 (Breast Carcinoma); assay: as above
In short: as §1

[3] = tested on: RPMI-8226 (Plasma Cell Myeloma); assay: as above
In short: as §1

[4] = tested on: MOLM-13 (Acute Myeloid Leukemia); assay: as above
In short: as §1

[5] = tested on: SK-GT-4 (Esophageal Adenocarcinoma); assay: as above
In short: as §1

[6] = tested on: HCC1419 (Breast Carcinoma); assay: as above
In short: as §1

[7] = tested on: H9 (T-Cell Non-Hodgkin's Lymphoma); assay: as above
In short: as §1

[8] = tested on: ESO51 (Esophageal Adenocarcinoma); assay: as above
In short: as §1

M059J (Glioblastoma) = assay: as above
In short: as §1

SJSA-1 (Osteosarcoma) = assay: as above
In short: as §1

[9] = tested on: DMS-114 (Small Cell Lung Carcinoma); assay: as above
In short: as §1

[10] = tested on: KYSE-270 (Esophageal Squamous Cell Carcinoma); assay: as above
In short: as §1

[11] = tested on: KP-3 (Pancreatic Carcinoma); assay: as above
In short: as §1

[12] = tested on: NCI-H661 (Non-Small Cell Lung Carcinoma); assay: as above
In short: as §1

NCI-H2731 (Mesothelioma) = assay: as above
In short: as §1

[13] = tested on: CHSA8926 (Chondrosarcoma); assay: as above
In short: as §1

[14] = tested on: ST486 (Burkitt's Lymphoma); assay: as above
In short: as §1

[15] = tested on: JHH-4 (Hepatocellular Carcinoma); assay: as above
In short: as §1

[16] = tested on: IM-95 (Gastric Carcinoma); assay: as above
In short: as §1

[17] = tested on: SUP-B15 (B-Lymphoblastic Leukemia); assay: Bliss excess, mean over the matrix (fraction); higher = more synergy;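 further: after 72 h of two-drug dosing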
In short: as §1

SMILES | combination Emax [1] | combination Emax [2] | combination Emax [3] | combination Emax [4] | combination Emax [5] | combination Emax [6] | combination Emax [7] | combination Emax [8] | combination Emax (M059J (Glioblastoma)) | combination Emax (SJSA-1 (Osteosarcoma)) | combination Emax [9] | combination Emax [10] | combination Emax [11] | combination Emax [12] | combination Emax (NCI-H2731 (Mesothelioma)) | combination Emax [13] | combination Emax [14] | combination Emax [15] | combination Emax [16] | Bliss excess [17]
COc1cc2ncnc(Nc3ccc(F)c(Cl)c3)c2cc1OCCCN1CCOCC1 [Gefitinib] + CC(C)n1c(=O)n(C)c2cnc3cc(F)c(-c4ccc(OCCCN5CCCCC5)nc4)cc3c21 [AZD1390] (first compound max 10 µM, 7x7, partner max 0.3 µM) | 0.768 | 0.108 | 0.0829 | 0.776 | 0.373 | 0.425 | 0.47 | 0.188 | 0.178 | 0.0992 | 0.255 | 0.435 | 0.0907 | 0.0361 | 0.0304 | 0.194 | 0.35 | 0.234 | 0.171 | -0.0673
Cc1c2c(nn1C)CSCc1cc(n(C)n1)CSc1cc(c3ccccc3c1)OCCCc1c(C(=O)O)n(C)c3c-2c(Cl)ccc13 [AZD5991] + Cc1cc2ncnn2cc1Nc1ncc2c(n1)n(C1CCOCC1)c(=O)n2C [AZD7648] (first compound max 1 µM, 7x7, partner max 10 µM) | 0.192 | 1 | 0.957 | 1 | 0.327 | 0.501 | 0.722 | 0.127 | 0.468 | 0.361 | 0.692 | 0.508 | 0.168 | 0.419 | 0.576 | 0.515 | 0.841 | 0.262 | 0.788 | 0.0099
COc1cccc2c1C(=O)c1c(O)c3c(c(O)c1C2=O)C[C@@](O)(C(=O)CO)C[C@@H]3O[C@H]1C[C@H](N)[C@H](O)[C@H](C)O1 [Doxorubicin] + Cc1cc2ncnn2cc1Nc1ncc2c(n1)n(C1CCOCC1)c(=O)n2C [AZD7648] (first compound max 1 µM, 7x7, partner max 10 µM) | 0.406 | 0.724 | 0.976 | 1 | 0.593 | 0.535 | 1 | 0.611 | 0.829 | 0.864 | 0.551 | 0.944 | 0.152 | 0.753 | 0.715 | 0.701 | 0.955 | 0.666 | 0.7 | 0.153
COc1cccc(OCCCN)c1-c1cc(Nc2cnc(C#N)cn2)n[nH]1 [Prexasertib] + C[C@@H]1COCCN1C2=NC(=NC(=C2)C3(CC3)[S@](=N)(=O)C)C4=C5C=CNC5=NC=C4 [AZD6738] (first compound max 1 µM, 7x7, partner max 10 µM) | 0.81 | 0.614 | 1 | 1 | 0.713 | 0.449 | 1 | 0.779 | 0.686 | 0.575 | 0.514 | 0.999 | 0.456 | 0.744 | 0.395 | 0.361 | 0.98 | 0.501 | 0.267 | -0.0671
Cc1c2c(nn1C)CSCc1cc(n(C)n1)CSc1cc(c3ccccc3c1)OCCCc1c(C(=O)O)n(C)c3c-2c(Cl)ccc13 [AZD5991] + CCN(CCO)CCCOc1ccc2c(Nc3cc(CC(=O)Nc4cccc(F)c4)[nH]n3)ncnc2c1 [AZD2811] (first compound max 1 µM, 7x7, partner max 1 µM) | 0.204 | 1 | 0.965 | 1 | 0.26 | 0.308 | 0.959 | 0.195 | 0.523 | 0.292 | 0.587 | 0.926 | 0.186 | 0.686 | 0.273 | 0.652 | 0.976 | 0.315 | 0.875 | 0.0125
Cc1cc2ncnn2cc1Nc1ncc2c(n1)n(C1CCOCC1)c(=O)n2C [AZD7648] + O=C(c1cc(Cc2n[nH]c(=O)c3ccccc23)ccc1F)N1CCN(C(=O)C2CC2)CC1 [Olaparib] (first compound max 10 µM, 7x7, partner max 10 µM) | 0.0892 | 0.294 | 0.464 | 0.43 | 0.26 | 0.174 | 0.22 | 0.224 | 0.431 | 0.18 | 0.236 | 0.212 | 0.0579 | 0.215 | 0.14 | 0.241 | 0.424 | 0.112 | 0.204 | 0.0239
